The structures appear in SMILES notation.

The test system of one series is RSV strain A2. The series can be described thus: microbe, parasite or virus in culture. In kind it is cell-based, respiratory syncytial virus. The following applies: read-out: EC50.
Series [1] is described as follows: in vitro. The note with it: human.
The next series relates to HCV 1b Replicon. Kind of series: Anti-HCV activity, HCV 1b replicon. The note with it: Hepatitis C virus, Huh-7. On the technique in general: A replicon is a self-replicating genome or part of one, used to study replication in cells.
The subject of a further series is HCV 2a Replicon. The series can be described thus: Anti-HCV activity, HCV 2a replicon. The note with it: Hepatitis C virus, Huh-7.
Series [2] is described as follows: in vitro. The note with it: human. This is another data set of the same source.
The subject of series [3] is HRV (mixture of HRV1A, HRV14, HRV16). Kind of series: microbe, parasite or virus in culture. The class given is cell-based. The note with it: Human rhinovirus sp., H1-HeLa.
The nature of series [4]: in vitro. The following applies: human. The source holds these as a separate data set.
Another series has as its system HIV-1 clinical isolates. Kind of series: Antiviral assay against HIV-1 clinical isolates in fresh human PBMCs (RT endpoint).
The next series has as its system HIV-2 CDC 310319. The series can be described thus: Antiviral assay against HIV-2 isolate in fresh human PBMCs (RT endpoint). The note with it: Human immunodeficiency virus 2, PBMC.
A short description of series [5]: in vitro. The note with it: human. The source holds these as a separate data set.
Another series has as its system Influenza B/LEE/40. The series can be described thus: microbe, parasite or virus in culture. The class given is cell-based. The note with it: NHBE.
In the next series the test system is Influenza A/PC/1/73. The series can be described thus: microbe, parasite or virus in culture. The following applies: NHBE. In kind it is cell-based.

As to `O=C(NC1CC1)c1cc2c(s1)-c1ccccc1N(C(=O)c1ccc(NC(=O)c3ccccc3-c3ccccc3)cc1)CC2` [YM-53403], the EC50 with RSV strain A2 is 350 nM. In the series on HEp-2 Cells, the CC50 was more than 50000 nM.

For `C[C@@]1(O)[C@H](O)[C@@H](CO)O[C@H]1n1cnc2c(N)ncnc21` [Compound 2-CMeA, 2′-C-methyladenosine], the CC50 is more than 44000 nM in “in vitro [1]” and 42200 nM in “in vitro [2]”. The EC50 in the series on HCV 1b Replicon came out at 112 nM; with HCV 2a Replicon, 301 nM.

Regarding `CCOC(=O)/C=C/[C@H](C[C@@H]1CCNC1=O)NC(=O)[C@@H](CC(=O)[C@@H](NC(=O)c1cc(C)on1)C(C)C)Cc1ccc(F)cc1` [Rupintrivir, rupintrivir], the EC50 in [3] came out at 30 nM. Besides, the CC50 in the series “in vitro [4]” is more than 10000 nM.

As for `Cc1cn([C@H]2C[C@H](N=[N+]=[N-])[C@@H](CO)O2)c(=O)[nH]c1=O` [AZT, zidovudine], the EC50 in the series with HIV-1 clinical isolates (Human immunodeficiency virus 1, BAL, PBMC, HIV-1 subtype B isolate BaL, human PBMCs) was 3.8 ± 0.6 nM; in the series with HIV-1 clinical isolates (Human immunodeficiency virus 1, PBMC, HIV-1 subtype A isolate 92RW016, human PBMCs), 2 ± 0.3 nM; in the series with HIV-1 clinical isolates (Human immunodeficiency virus 1, PBMC, HIV-1 subtype A isolate 92UG037, human PBMCs), 11.2 ± 3.7 nM; with HIV-1 clinical isolates (Human immunodeficiency virus 1, PBMC, HIV-1 subtype B isolate 89BZ_167, human PBMCs) it was 3.6 ± 0.8 nM; in the series on HIV-1 clinical isolates (Human immunodeficiency virus 1, PBMC, HIV-1 subtype B isolate 91US001, human PBMCs) it was 5.5 ± 2.5 nM; in the series on HIV-1 clinical isolates (Human immunodeficiency virus 1, PBMC, HIV-1 subtype B isolate 91US004, human PBMCs), 2.6 ± 1.5 nM. The EC50 in the series with HIV-1 clinical isolates (Human immunodeficiency virus 1, PBMC, HIV-1 subtype C isolate 93IN905, human PBMCs) worked out at 1.6 ± 0.7 nM; in the series on HIV-1 clinical isolates (Human immunodeficiency virus 1, PBMC, HIV-1 subtype C isolate 98US_MSC5016, human PBMCs), 7.9 ± 4.4 nM; in the series on HIV-1 clinical isolates (Human immunodeficiency virus 1, PBMC, HIV-1 subtype D isolate 98UG_57128, human PBMCs) it was 0.07 ± 0.03 nM; in the series on HIV-1 clinical isolates (Human immunodeficiency virus 1, PBMC, HIV-1 subtype E isolate 96TH_M02138, human PBMCs), 5.5 ± 0.4 nM; in the series on HIV-1 clinical isolates (Human immunodeficiency virus 1, PBMC, HIV-1 subtype E isolate 96TH_NI1046, human PBMCs) it was 2.3 ± 0.7 nM; in the series on HIV-1 clinical isolates (Human immunodeficiency virus 1, PBMC, HIV-1 subtype F isolate 93BR020, human PBMCs), 8.1 ± 7.1 nM. The same compound yielded an EC50 with HIV-2 CDC 310319 of 9.3 ± 4.6 nM.

In turn, `Nc1nc2c(ncn2[C@@H]2O[C@H](CO)[C@@H](O)[C@H]2F)c(=O)[nH]1` [2'-FDG, 2′-fluoro-2′-deoxyguanosine] returned a CC50 in “in vitro [5]” of more than 100000 nM. In addition, the results for the EC50 in the series with Influenza B/LEE/40 and in the series on Influenza A/PC/1/73 were 14000 nM and 6000 nM, respectively.

For orientation: EC50 means the concentration needed to bring the measured effect to its halfway point.
